Test results: US11065232B2, “Dihydrotetrabenazine for the treatment of anxiety and psychoses” (ADEPTIO PHARMACEUTICALS LIMITED, priority 2017, dated 2021)

Legend:
[1] = target: 5-HT2B (h) (agonist radioligand) (Homo sapiens, UniProt P41595); experiment: Receptor protein binding studies, 5-HT2B
Text: (§1) The four 3,11b trans-dihydrotetrabenazine isomers (+)-α, (−)-α, (+)-β and (−)-β were subjected to specific binding assays to test their ability to bind to the receptors and transporter proteins described below. The results are set out in Table 1

[2] = target: Sigma 1 (h) (agonist radioligand) (Homo sapiens, UniProt Q99720); experiment: Receptor protein binding studies, Sigma 1
Sigma 1 (h) (agonist radioligand), sequence (Q99720 whole entry): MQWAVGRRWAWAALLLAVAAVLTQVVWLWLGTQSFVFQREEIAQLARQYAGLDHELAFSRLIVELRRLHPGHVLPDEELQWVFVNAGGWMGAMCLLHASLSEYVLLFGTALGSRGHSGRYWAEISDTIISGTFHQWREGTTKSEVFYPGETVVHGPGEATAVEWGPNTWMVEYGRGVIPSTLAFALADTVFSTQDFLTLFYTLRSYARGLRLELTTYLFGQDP
Text: as §1

5-HT6 (h) = 5-HT6 (h) (Homo sapiens, UniProt P50406); experiment: Receptor protein binding studies, 5-HT6
5-HT6 (h), sequence (P50406 whole entry): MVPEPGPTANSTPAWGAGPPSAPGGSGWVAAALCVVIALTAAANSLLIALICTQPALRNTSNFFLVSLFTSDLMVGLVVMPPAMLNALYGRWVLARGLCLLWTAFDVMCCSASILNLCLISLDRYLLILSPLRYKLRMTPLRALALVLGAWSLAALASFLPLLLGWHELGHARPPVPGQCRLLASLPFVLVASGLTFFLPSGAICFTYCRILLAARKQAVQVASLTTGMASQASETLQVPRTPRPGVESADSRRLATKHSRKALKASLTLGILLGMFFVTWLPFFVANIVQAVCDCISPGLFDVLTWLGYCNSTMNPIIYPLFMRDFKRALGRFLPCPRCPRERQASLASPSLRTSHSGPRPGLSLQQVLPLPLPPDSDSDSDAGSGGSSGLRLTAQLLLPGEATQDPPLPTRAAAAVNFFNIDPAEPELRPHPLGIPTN
Text: as §1

[3] = target: T1, alpha 2C (h) (antagonist radioligand) (Homo sapiens, UniProt P18825); experiment: Receptor protein binding studies, alpha 2C
T1 sequence (P18825 1-462): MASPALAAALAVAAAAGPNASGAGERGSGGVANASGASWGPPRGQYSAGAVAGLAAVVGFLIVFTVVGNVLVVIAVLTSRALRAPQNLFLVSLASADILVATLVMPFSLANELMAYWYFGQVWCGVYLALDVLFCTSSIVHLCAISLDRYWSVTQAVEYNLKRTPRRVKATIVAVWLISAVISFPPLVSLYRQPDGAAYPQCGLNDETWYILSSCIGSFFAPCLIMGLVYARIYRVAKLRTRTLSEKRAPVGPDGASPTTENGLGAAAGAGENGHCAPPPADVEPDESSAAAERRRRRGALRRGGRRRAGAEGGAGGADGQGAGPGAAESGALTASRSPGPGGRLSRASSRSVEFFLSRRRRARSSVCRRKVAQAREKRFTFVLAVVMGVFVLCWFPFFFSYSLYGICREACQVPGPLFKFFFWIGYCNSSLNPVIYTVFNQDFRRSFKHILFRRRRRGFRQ
Text: as §1

[4] = target: T2, 5-HT2C (h) (agonist radioligand) (Homo sapiens, UniProt P28335); experiment: Receptor protein binding studies, 5-HT2C
T2 sequence (P28335 33-458): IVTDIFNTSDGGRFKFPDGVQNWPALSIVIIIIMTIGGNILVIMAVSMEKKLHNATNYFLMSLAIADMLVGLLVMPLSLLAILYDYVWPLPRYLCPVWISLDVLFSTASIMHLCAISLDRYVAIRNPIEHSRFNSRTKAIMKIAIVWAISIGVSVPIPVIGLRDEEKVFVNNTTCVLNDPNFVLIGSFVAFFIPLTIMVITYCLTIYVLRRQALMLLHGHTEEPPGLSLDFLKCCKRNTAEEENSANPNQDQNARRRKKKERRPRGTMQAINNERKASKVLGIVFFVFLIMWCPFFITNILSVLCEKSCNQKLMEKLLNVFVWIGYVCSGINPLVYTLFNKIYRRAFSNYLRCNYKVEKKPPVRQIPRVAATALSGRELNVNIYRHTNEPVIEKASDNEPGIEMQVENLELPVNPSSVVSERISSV
Text: as §1

[5] = target: T3, alpha 1A (h) (antagonist radioligand) (Homo sapiens, UniProt P35348); experiment: Receptor protein binding studies, alpha 1A
T3 sequence (P35348 1-466): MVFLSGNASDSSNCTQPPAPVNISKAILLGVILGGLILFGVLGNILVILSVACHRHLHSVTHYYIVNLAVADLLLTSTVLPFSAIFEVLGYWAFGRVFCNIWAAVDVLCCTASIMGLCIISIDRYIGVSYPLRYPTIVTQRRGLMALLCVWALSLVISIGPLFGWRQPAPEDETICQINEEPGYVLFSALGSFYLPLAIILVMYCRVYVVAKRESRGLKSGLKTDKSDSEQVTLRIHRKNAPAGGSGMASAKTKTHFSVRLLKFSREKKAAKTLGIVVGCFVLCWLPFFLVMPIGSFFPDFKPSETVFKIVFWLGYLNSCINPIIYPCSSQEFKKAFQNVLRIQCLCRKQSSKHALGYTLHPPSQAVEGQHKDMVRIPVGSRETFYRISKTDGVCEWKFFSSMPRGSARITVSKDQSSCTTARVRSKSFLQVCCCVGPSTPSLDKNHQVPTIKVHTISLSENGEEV
Text: as §1

[6] = target: T4, alpha 1B (h) (antagonist radioligand) (Homo sapiens, UniProt P35368); experiment: Receptor protein binding studies, alpha 1B
T4 sequence (P35368 1-520): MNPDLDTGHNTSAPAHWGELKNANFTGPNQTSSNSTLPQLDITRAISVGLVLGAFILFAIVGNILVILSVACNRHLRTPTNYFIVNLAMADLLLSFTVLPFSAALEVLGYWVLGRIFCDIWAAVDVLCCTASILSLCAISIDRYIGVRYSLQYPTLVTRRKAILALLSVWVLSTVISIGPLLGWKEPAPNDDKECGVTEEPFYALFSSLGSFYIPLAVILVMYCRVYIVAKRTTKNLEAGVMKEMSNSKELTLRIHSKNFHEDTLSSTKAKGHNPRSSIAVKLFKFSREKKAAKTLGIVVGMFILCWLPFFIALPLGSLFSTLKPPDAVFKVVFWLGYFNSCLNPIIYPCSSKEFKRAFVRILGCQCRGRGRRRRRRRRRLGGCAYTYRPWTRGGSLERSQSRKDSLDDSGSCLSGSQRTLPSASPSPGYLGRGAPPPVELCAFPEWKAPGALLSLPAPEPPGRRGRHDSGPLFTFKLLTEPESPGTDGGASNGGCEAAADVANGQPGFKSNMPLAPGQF
Text: as §1

[7] = tested on: I2 (antagonist radioligand); experiment: Receptor protein binding studies, I2
Text: as §1

[8] = target: D3 (h) (antagonist radioligand) (Homo sapiens, UniProt P35462); experiment: Receptor protein binding studies, D3
D3 (h) (antagonist radioligand), sequence (P35462 whole entry): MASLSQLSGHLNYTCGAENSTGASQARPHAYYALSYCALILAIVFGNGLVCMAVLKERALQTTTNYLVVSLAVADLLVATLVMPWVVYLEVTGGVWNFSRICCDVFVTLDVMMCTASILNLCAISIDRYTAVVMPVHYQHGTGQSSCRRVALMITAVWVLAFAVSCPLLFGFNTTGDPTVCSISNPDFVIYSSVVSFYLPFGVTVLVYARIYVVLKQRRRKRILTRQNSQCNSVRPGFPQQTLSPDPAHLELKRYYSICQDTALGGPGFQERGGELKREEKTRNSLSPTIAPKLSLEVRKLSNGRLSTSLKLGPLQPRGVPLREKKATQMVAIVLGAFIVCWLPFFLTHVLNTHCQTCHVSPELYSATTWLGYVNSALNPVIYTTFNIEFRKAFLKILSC
Text: as §1

[9] = target: D5 (h) (antagonist radioligand) (Homo sapiens, UniProt P21918); experiment: Receptor protein binding studies, D5
D5 (h) (antagonist radioligand), sequence (P21918 whole entry): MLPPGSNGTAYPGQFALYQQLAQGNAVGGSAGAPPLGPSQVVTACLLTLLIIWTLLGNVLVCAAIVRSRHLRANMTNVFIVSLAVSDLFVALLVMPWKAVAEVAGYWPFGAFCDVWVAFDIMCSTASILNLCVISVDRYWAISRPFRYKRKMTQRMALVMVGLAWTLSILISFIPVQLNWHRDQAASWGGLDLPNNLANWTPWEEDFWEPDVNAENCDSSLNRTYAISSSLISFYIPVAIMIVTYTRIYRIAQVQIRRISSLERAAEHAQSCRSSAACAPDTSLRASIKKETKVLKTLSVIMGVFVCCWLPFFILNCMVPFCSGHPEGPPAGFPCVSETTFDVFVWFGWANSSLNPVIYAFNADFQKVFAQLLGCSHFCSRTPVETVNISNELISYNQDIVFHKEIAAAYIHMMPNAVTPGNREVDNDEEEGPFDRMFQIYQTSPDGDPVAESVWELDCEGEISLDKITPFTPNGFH
Text: as §1

5-HT2B (h) (agonist radioligand), sequence (P41595 whole entry): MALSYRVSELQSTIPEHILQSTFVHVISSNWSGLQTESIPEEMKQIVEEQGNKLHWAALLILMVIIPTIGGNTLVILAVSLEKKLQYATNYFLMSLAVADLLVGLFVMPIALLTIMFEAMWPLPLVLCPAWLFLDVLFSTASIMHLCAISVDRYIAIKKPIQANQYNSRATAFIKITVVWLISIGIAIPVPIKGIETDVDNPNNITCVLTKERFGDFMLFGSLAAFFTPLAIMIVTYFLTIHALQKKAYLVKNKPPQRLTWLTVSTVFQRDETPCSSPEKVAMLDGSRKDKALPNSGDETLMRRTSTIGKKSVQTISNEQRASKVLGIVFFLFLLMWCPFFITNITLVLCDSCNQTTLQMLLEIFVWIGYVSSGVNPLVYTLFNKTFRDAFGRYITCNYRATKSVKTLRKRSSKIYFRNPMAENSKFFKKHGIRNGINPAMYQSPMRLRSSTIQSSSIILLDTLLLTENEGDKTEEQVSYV

Substance	% Inhibition of specific binding ([1]; CONC 1.0E−05 (unit not given)) [%]	% Inhibition of specific binding ([1]; CONC 1.0E−06 (unit not given)) [%]	% Inhibition of specific binding ([2]; CONC 1.0E−05 (unit not given)) [%]	% Inhibition of specific binding ([2]; CONC 1.0E−06 (unit not given)) [%]	% Inhibition of specific binding (5-HT6 (h); CONC 1.0E−05 (unit not given)) [%]	% Inhibition of specific binding (5-HT6 (h); CONC 1.0E−06 (unit not given)) [%]	% Inhibition of specific binding ([3]; CONC 1.0E−05 (unit not given)) [%]	% Inhibition of specific binding ([3]; CONC 1.0E−06 (unit not given)) [%]	% Inhibition of specific binding ([4]; CONC 1.0E−05 (unit not given)) [%]	% Inhibition of specific binding ([4]; CONC 1.0E−06 (unit not given)) [%]	% Inhibition of specific binding ([5]; CONC 1.0E−05 (unit not given)) [%]	% Inhibition of specific binding ([5]; CONC 1.0E−06 (unit not given)) [%]	% Inhibition of specific binding ([6]; CONC 1.0E−05 (unit not given)) [%]	% Inhibition of specific binding ([6]; CONC 1.0E−06 (unit not given)) [%]	% Inhibition of specific binding ([7]; CONC 1.0E−05 (unit not given)) [%]	% Inhibition of specific binding ([7]; CONC 1.0E−06 (unit not given)) [%]	% Inhibition of specific binding ([8]; CONC 1.0E−05 (unit not given)) [%]	% Inhibition of specific binding ([8]; CONC 1.0E−06 (unit not given)) [%]	% Inhibition of specific binding ([9]; CONC 1.0E−05 (unit not given)) [%]	% Inhibition of specific binding ([9]; CONC 1.0E−06 (unit not given)) [%]
(−)-α-dihydrotetrabenazine [(−)-Alpha]	92	55	78	40	29	6	69	17	16	0	6	1	14	9	12	13	79	26	23	−3
(+)-α-dihydrotetrabenazine [(+)-Alpha]	0	−4	96	64	35	−1	5	4	3	−8	12	7	23	−4	20	1	2	−14	−8	−7
(+)-β-dihydrotetrabenazine [(+)-Beta]	−7	−2	99	92	6	15	12	−7	−5	2	33	2	1	3	11	6	12	−18	−5	−8
